Results taken from ChEMBL document CHEMBL4765390, “Discovery of carboxyl-containing biaryl ureas as potent RORγt inverse agonists” (Eur J Med Chem, 2020).
≈ marks a conversion by molar mass, not a printed value.

How the values were obtained:
[1] = biological target: T1, Nuclear receptor ROR-gamma (Homo sapiens, UniProt P51449); experiment: Inverse agonist activity at human RORgammat assessed as inhibition of N-terminal biotinylated co-activator SRC1 recruitment measured after 60 mins by FRET assay
T1 sequence (P51449 whole entry): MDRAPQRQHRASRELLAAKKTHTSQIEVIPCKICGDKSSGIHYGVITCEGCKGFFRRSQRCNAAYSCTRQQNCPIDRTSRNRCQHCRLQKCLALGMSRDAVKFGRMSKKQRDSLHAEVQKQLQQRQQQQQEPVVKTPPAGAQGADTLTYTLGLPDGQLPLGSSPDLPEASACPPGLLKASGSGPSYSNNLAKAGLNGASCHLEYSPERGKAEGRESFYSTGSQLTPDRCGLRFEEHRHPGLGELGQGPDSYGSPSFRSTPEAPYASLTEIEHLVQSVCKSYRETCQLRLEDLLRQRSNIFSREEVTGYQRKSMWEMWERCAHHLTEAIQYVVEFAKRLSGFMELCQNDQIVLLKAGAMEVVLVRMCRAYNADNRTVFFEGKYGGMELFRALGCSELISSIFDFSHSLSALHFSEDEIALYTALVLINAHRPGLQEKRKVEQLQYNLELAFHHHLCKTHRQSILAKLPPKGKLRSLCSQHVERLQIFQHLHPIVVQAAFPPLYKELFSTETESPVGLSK

[2] = Cmax in CD-1 mouse at 5 mg/kg, po administered as single dose measured after 24 hrs by LC-MS/MS analysis; format: ADME, organism-based; design: route oral, time 24 hrs, dose 5 mg/kg; details: in vivo
[3] = Cmax in CD-1 mouse at 1 mg/kg, iv administered as single dose measured after 24 hrs by LC-MS/MS analysis; format: ADME, organism-based; design: route intravenous, time 24 hrs, dose 1 mg/kg; details: in vivo
[4] = Clearance in CD-1 mouse at 1 mg/kg, iv administered as single dose measured after 24 hrs by LC-MS/MS analysis; format: ADME, organism-based; details: in vivo
[5] = biological target: T2, Nuclear receptor ROR-beta (Homo sapiens, UniProt Q92753); experiment: Inverse agonist activity at ROR-beta (unknown origin) expressed in HEK293 cells by Gal4-luciferase reporter assay; format: cell-based
T2 sequence (Q92753 whole entry): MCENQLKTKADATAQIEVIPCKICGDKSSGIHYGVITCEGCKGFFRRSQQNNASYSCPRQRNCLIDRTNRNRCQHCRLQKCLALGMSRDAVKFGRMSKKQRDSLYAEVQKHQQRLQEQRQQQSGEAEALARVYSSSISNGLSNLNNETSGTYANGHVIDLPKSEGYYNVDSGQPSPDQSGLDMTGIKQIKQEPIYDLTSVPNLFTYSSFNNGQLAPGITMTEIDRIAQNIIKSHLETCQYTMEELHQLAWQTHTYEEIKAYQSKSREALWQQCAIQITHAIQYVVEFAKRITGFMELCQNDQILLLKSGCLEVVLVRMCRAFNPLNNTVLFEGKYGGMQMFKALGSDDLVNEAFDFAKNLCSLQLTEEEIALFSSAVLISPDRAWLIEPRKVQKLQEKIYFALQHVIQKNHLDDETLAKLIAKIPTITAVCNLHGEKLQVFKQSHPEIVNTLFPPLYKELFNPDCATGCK

[6] = biological target: T3, Nuclear receptor ROR-alpha (Homo sapiens, UniProt P35398); experiment: Inverse agonist activity at ROR-alpha (unknown origin) expressed in HEK293 cells by Gal4-luciferase reporter assay; format: cell-based
T3 sequence (P35398 whole entry): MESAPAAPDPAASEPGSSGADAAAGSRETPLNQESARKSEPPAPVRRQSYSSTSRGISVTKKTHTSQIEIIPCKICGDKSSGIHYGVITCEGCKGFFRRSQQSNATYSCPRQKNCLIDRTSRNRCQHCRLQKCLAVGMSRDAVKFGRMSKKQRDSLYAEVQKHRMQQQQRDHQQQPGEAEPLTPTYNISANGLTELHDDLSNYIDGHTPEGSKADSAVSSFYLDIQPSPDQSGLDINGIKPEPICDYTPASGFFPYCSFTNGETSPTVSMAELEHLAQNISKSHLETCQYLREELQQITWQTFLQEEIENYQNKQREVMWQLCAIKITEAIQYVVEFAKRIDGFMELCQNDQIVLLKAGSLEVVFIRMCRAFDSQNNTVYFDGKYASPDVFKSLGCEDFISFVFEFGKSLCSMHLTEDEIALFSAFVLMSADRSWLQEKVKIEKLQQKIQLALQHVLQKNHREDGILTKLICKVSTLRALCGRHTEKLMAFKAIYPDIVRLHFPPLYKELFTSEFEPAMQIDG

[7] = Tmax in CD-1 mouse at 5 mg/kg, po administered as single dose measured after 24 hrs by LC-MS/MS analysis; format: ADME, organism-based; details: in vivo
[8] = AUC (0 to last) in CD-1 mouse at 5 mg/kg, po administered as single dose measured after 24 hrs by LC-MS/MS analysis; format: ADME, organism-based; design: route oral, dose 5 mg/kg, time 24 hrs; details: in vivo
[9] = AUC (0 to last) in CD-1 mouse at 1 mg/kg, iv administered as single dose measured after 24 hrs by LC-MS/MS analysis; format: ADME, organism-based; design: route intravenous, dose 1 mg/kg, time 24 hrs; details: in vivo
[10] = Half life in CD-1 mouse at 5 mg/kg, po administered as single dose measured after 24 hrs by LC-MS/MS analysis; format: ADME, organism-based; details: in vivo
[11] = Oral bioavailability in CD-1 mouse at 5 mg/kg administered as single dose measured after 24 hrs by LC-MS/MS analysis; format: ADME, organism-based; details: in vivo
[12] = Half life in CD-1 mouse at 1 mg/kg, iv administered as single dose measured after 24 hrs by LC-MS/MS analysis; format: ADME, organism-based; details: in vivo
[13] = Aqueous kinetic solubility of the compound at pH 7.4 PBS buffer at 100 uM incubated for 120 mins by LC-MS/MS analysis; format: physicochemical; details: read-out: Kinetic_solubility
[14] = Volume of distribution at steady state in CD-1 mouse at 1 mg/kg, iv administered as single dose measured after 24 hrs by LC-MS/MS analysis; format: ADME, organism-based; details: in vivo, read-out: Vdss

SMILES | IC50 [1] | further results
CC(C(=O)O)c1ccc(CNC(=O)Nc2cc(Cl)c(-c3ccccc3OC(F)(F)F)c(Cl)c2)cc1 (configuration not stated) | 541 nM | –
O=C(O)Cc1ccc(CNC(=O)Nc2cc(Cl)c(-c3ccccc3OC(F)(F)F)c(Cl)c2)cc1 | – | Cmax [2]: 609 ng/mL; Cmax [3]: 1550 ng/mL; clearance [4]: 13.1 mL/min/kg; IC50 [5]: > 10 µM; IC50 [6]: > 10 µM; Tmax [7]: 1 h; AUC(0-t) at 24 h [8]: 2410 ng·h/mL; AUC(0-t) at 24 h [9]: 1270 ng·h/mL; half-life [10]: 218 min; bioavailability [11]: 38.1%; half-life [12]: 182 min; solubility kinetic at 2 h, 100 µM [13]: 84 µg/mL (≈ 164 µM); Vd [14]: 1.78 L/kg
CCS(=O)(=O)c1ccc(CNC(=O)c2cc(Cl)c(-c3ccccc3OC(F)(F)F)c(Cl)c2)cc1 | 112 nM | –
O=C(O)Cc1ccc(CNC(=O)Nc2ccc(-c3ccccc3)cc2)cc1 | > 30000 nM | –
CS(=O)(=O)c1ccc(CNC(=O)Nc2cc(Cl)c(-c3ccccc3OC(F)(F)F)c(Cl)c2)cc1 | 69 nM | –
Cc1cc(NC(=O)NCc2ccc(CC(=O)O)cn2)cc(C)c1-c1ccccc1OC(F)F | 345 nM | –
O=C(O)CCc1ccc(CNC(=O)Nc2cc(Cl)c(-c3ccccc3OC(F)(F)F)c(Cl)c2)cc1 | 841 nM | –
CCS(=N)(=O)c1ccc(CNC(=O)Nc2cc(Cl)c(-c3ccccc3OC(F)(F)F)c(Cl)c2)cc1 (configuration not stated) | 200 nM | –
O=C(NCc1ccc(C(O)C(=O)O)cc1)Nc1cc(Cl)c(-c2ccccc2OC(F)(F)F)c(Cl)c1 (configuration not stated) | 278 nM | –
CC(=O)NS(=O)(=O)c1ccc(CNC(=O)Nc2cc(Cl)c(-c3ccccc3OC(F)(F)F)c(Cl)c2)cc1 | 138 nM | –
O=C(O)Cc1ccc(CNC(=O)Nc2cc(F)c(-c3ccccc3OC(F)(F)F)c(F)c2)nc1 | 996 nM | –
NS(=O)(=O)c1ccc(CNC(=O)Nc2cc(Cl)c(-c3ccccc3OC(F)(F)F)c(Cl)c2)cc1 | 276 nM | –
O=C(NCc1ccc(C(F)C(=O)O)cc1)Nc1cc(Cl)c(-c2ccccc2OC(F)(F)F)c(Cl)c1 (configuration not stated) | 124 nM | –
CCS(=O)(=O)c1ccc(CCOc2cc(Cl)c(-c3ccccc3OC(F)(F)F)c(Cl)c2)cc1 | 426 nM | –
CC(C(=O)O)c1ccc(CNC(=O)Nc2cc(Cl)c(-c3ccccc3OC(F)(F)F)c(Cl)c2)nc1 (configuration not stated) | 1780 nM | –
Cc1cc(CC(=O)O)ccc1CNC(=O)Nc1cc(Cl)c(-c2ccccc2OC(F)(F)F)c(Cl)c1 | 398 nM | –
CC(C(=O)O)c1ccc(CNC(=O)Nc2cc(Cl)c(-c3ccccc3OC(F)(F)F)c(C#N)c2)cc1 (configuration not stated) | 334 nM | –
CNS(=O)(=O)c1ccc(CNC(=O)Nc2cc(Cl)c(-c3ccccc3OC(F)(F)F)c(Cl)c2)cc1 | 99.8 nM | –
CCS(=O)(=O)c1ccc(COCc2cc(Cl)c(-c3ccccc3OC(F)(F)F)c(Cl)c2)cc1 | 4410 nM | –
CCS(=O)(=O)c1ccc(CCNc2cc(Cl)c(-c3ccccc3OC(F)(F)F)c(Cl)c2)cc1 | 21.6 nM | –
Cc1cc(CNC(=O)Nc2cc(Cl)c(-c3ccccc3OC(F)(F)F)c(Cl)c2)ccc1CC(=O)O | 995 nM | –
CCS(=O)(=O)c1ccc(CC(=O)Nc2cc(Cl)c(-c3ccccc3OC(F)(F)F)c(Cl)c2)cc1 | – | solubility kinetic at 2 h, 100 µM [13]: 1.25 µg/mL (≈ 2.35 µM)
O=C(NCc1ccc(C(O)CO)cc1)Nc1cc(Cl)c(-c2ccccc2OC(F)(F)F)c(Cl)c1 (configuration not stated) | 584 nM | –
CCS(=O)(=O)c1ccc(OCC(=O)Nc2cc(Cl)c(-c3ccccc3OC(F)(F)F)c(Cl)c2)cc1 | 99 nM | –
O=C(NCc1ccc(C(=O)O)cc1)Nc1cc(Cl)c(-c2ccccc2OC(F)(F)F)c(Cl)c1 | 1100 nM | –
